The values below come from patent US8080251B2, “Antigenic peptides” (Centre for DNA Fingerprinting and Diagnostics, priority 2004, dated 2011).

The subject of test [1] is serum IgG antibodies (patient sera). Description: ELISA of serum IgG antibody response of TB patients to rRv2608 protein / synthetic peptides. It counts as binding, human. Particulars: for Reactivity with patient sera: TB patient sera, ELISA; for Mean (O.D. at 492 nm): humoral response, antigen 2 μg/ml.
Test [2] deals with peripheral blood mononuclear cells (PBMCs). The test can be described thus: Lymphocyte (T cell) proliferation assay, MTT readout. Conditions: comparison between patient categories / between peptides. Format: cell-based, human.
Where [3] appears, read: Category I patients (TB diagnosed for the first time, n=22).
The mark [4] stands for this setting: Category II patients (relapsed TB, n=21).
The mark [5] stands for this setting: Category III patients (extrapulmonary TB, n=8).

As for “GNPNRPDGGILTK (listed as Mycobacterium tuberculosis) [Peptide P2c, 13-residue overlapping peptide, part of peptide 2]”, the “Reactivity with patient sera” value in test [1] is “react equally well with patient sera”. Besides, the “Mean (O.D. at 492 nm)” value in test [1] (setting [3]) is reported as 0.491; in test [1] (setting [4]), 0.632; in test [1] (setting [5]) it was 0.410. The “T cell proliferative response” value in test [2] was “comparatively higher T cell response”.

On to “LSFTLTGNPNRPK (listed as Mycobacterium tuberculosis) [Peptide P2b, 13-residue overlapping peptide, part of peptide 2]”, for which the “Reactivity with patient sera” value in test [1] is reported as “react equally well with patient sera”. In addition, the “Mean (O.D. at 492 nm)” value in test [1] (setting [3]) is listed as 0.450; in test [1] (setting [4]), 0.498; in test [1] (setting [5]) it was 0.422.

With “GIGNIGDRNLGIK (listed as Mycobacterium tuberculosis) [Peptide P1d, 13-residue overlapping peptide, component of peptide 1]”, the “Reactivity with patient sera” value in test [1] is “react equally well with patient sera”. The “Mean (O.D. at 492 nm)” value in test [1] (setting [3]) turned out to be 0.482; in test [1] (setting [4]), 0.787; in test [1] (setting [5]), 0.527.

Take “RPGLDELSFTLTGNPNRPDGGILTK (listed as Mycobacterium tuberculosis) [Peptide P2]”: the “Reactivity with patient sera” value in test [1] was “strongly react with patient sera”. Further, the “Mean (O.D. at 492 nm)” value in test [1] (setting [3]) is on record as 0.480; in test [1] (setting [4]), 0.706; in test [1] (setting [5]), 0.441. Also, the “T cell proliferative response” value in test [2] is listed as “comparatively higher T cell response”; in test [2] (listed as Peptide 2), “higher response in fresh infection cases”; in test [2] (listed as peptide 2) it was “fresh infection cases>relapsed TB>extrapulmonary TB cases”.

With “NIGFGNRGDANIK (listed as Mycobacterium tuberculosis) [Peptide P1b, 13-residue overlapping peptide, component of peptide 1]”, the “Reactivity with patient sera” value in test [1] was “react equally well with patient sera”. The “Mean (O.D. at 492 nm)” value is on record as 0.469 in test [1] (setting [3]), 0.775 in test [1] (setting [4]) and 0.520 in test [1] (setting [5]).

With “RGDANIGIGNIGK (listed as Mycobacterium tuberculosis) [Peptide P1c, 13-residue overlapping peptide, component of peptide 1]”, the “Reactivity with patient sera” value in test [1] was “react equally well with patient sera”. In addition, the “Mean (O.D. at 492 nm)” value in test [1] (setting [3]) turned out to be 0.416; in test [1] (setting [4]), 0.810; in test [1] (setting [5]), 0.380.

For “DNIGNANIGFGNK (listed as Mycobacterium tuberculosis) [Peptide P1a, 13-residue overlapping peptide, component of peptide 1]”, in test [1], the “Reactivity with patient sera” value is listed as “react equally well with patient sera”. In addition, the “Mean (O.D. at 492 nm)” value came out at 0.426 in test [1] (setting [3]), 0.770 in test [1] (setting [4]) and 0.473 in test [1] (setting [5]).

As to “RPGLDELSFTLTK (listed as Mycobacterium tuberculosis) [Peptide P2a, 13-residue overlapping peptide, part of peptide 2]”, the “Reactivity with patient sera” value in test [1] is “react equally well with patient sera”. The “Mean (O.D. at 492 nm)” value was found to be 0.473 in test [1] (setting [3]), 0.689 in test [1] (setting [4]) and 0.392 in test [1] (setting [5]).

“DRNLGIGNTGNWK (listed as Mycobacterium tuberculosis) [Peptide P1e, 13-residue overlapping peptide, component of peptide 1]”: the “Reactivity with patient sera” value in test [1] is reported as “react equally well with patient sera”. The “Mean (O.D. at 492 nm)” value amounted to 0.407 in test [1] (setting [3]), 0.711 in test [1] (setting [4]) and 0.405 in test [1] (setting [5]).

“DNIGNANIGFGNRGDANIGIGNIGDRNLGIGNTGNWK (listed as Mycobacterium tuberculosis) [Peptide P1]”: the “Reactivity with patient sera” value in test [1] was “strongly react with patient sera”. Besides, the “Mean (O.D. at 492 nm)” value is recorded as 0.412 in test [1] (setting [3]), 0.675 in test [1] (setting [4]) and 0.483 in test [1] (setting [5]).

B1: rRv2608: 59.6 kDa recombinant M. tuberculosis PPE_MPTR protein Rv2608, expressed in E. coli BL21 as 6×His-tag fusion protein (protein)
chain: MNFAVLPPEVNSARIFAGAGLGPMLAAASAWDGLAEELHAAAGSFASVTTGLAGDAWHGPASLAMTRAASPYVGWLNTAAGQAAQAAGQARLAASAFEATLAATVSPAMVAANRTRLASLVAANLLGQNAPAIAAAEAEYEQIWAQDVAAMFGYHSAASAVATQLAPIQEGLQQQLQNVLAQLASGNLGSGNVGVGNIGNDNIGNANIGFGNRGDANIGIGNIGDRNLGIGNTGNWNIGIGITGNGQIGFGKPANPDVLVVGNGGPGVTALVMGGTDSLLPLPNIPLLEYAARFITPVHPGYTATFLETPSQFFPFTGLNSLTYDVSVAQGVTNLHTAIMAQLAAGNEVVVFGTSQSATIATFEMRYLQSLPAHLRPGLDELSFTLTGNPNRPDGGILTRFGFSIPQLGFTLSGATPADAYPTVDYAFQYDGVNDFPKYPLNVFATANAIAGILFLHSGLIALPPDLASGVVQPVSSPDVLTTYILLPSQDLPLLVPLRAIPLLGNPLADLIQPDLRVLVELGYDRTAHQDVPSPFGLFPDVDWAEVAADLQQGAVQGVNDALSGLGLPPPWQPALPRLF
modifications: left off: small tags and cut ends
For the molecule B1, the “Serum reactivity of extrapulmonary TB patients” value in test [1] (Category III compared to Category I or II) is listed as “less reactivity”. Also, the “Serum reactivity compared with Hsp10” value in test [1] (all patient categories, p>0.05) was “equal to or higher than the response to Hsp10”. In test [1] (healthy controls (n=10) vs patients, p=0.0002), the “Serum reactivity of healthy controls” value is given as “significantly less when compared to that of patients”.
